# Assay results reported in article PMC8694143 (Microbiology Spectrum, 2021).
# No end group written: not given here.
# Experiments:
# Experiment in all cases: MIC determination in broth
# Assay type in all cases: cell-based, Staphylococcus aureus
# Conditions in all cases: STIP3 variants, highest conc. tested 100 μg/mL; cation-adjusted MH broth, ~10^5 CFU/mL, 2-fold dilution series, 37°C, 16 h
# S. aureus ATCC 29213 = tested on: S. aureus ATCC 29213
# Procedure, shortened: (§1)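 Peptides from the initial screen are tested as 2-fold dilution series against an inoculum of about 10^5 CFU/mL in cation-adjusted Mueller-Hinton medium, incubated at 37°C without agitation.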
# MRSA ATCC BAA-1683 = tested on: MRSA ATCC BAA-1683
# Procedure, shortened: as §1
# MRSA ATCC BAA-42 = tested on: MRSA ATCC BAA-42
# Procedure, shortened: as §1
# MRSA ATCC BAA-41 = tested on: MRSA ATCC BAA-41
# Procedure, shortened: as §1
substance,measurement,setting,value
TVGGLVKWILKTVKKFA-NH2 [STIP3-29],"MIC, S. aureus ATCC 29213",S. aureus ATCC 29213,12.5 µg/mL
same,"MIC, S. aureus ATCC BAA 1683 (SCCmec IV)",MRSA ATCC BAA-1683,6.25 µg/mL
same,"MIC, S. aureus ATCC BAA 42 (SCCmec VI)",MRSA ATCC BAA-42,6.25 µg/mL
same,"MIC, S. aureus ATCC BAA 41 (SCCmec II)",MRSA ATCC BAA-41,6.25 µg/mL
